For test [1], the target named is SMN2 pre-mRNA. Description: Modulation of SMN2 mRNA splicing in spinal muscular atrophy patient fibroblasts assessed as change in SMN protein expression measured after 48 hrs by MSD analysis. The following applies: fibroblast. More on the design: species or system Homo sapiens.
Test [2] has as its target SMN2 pre-mRNA. Description: Modulation of SMN2 mRNA splicing in spinal muscular atrophy patient fibroblasts measured after 24 hrs by TaqMan qPCR analysis. The following applies: fibroblast. The test is classed as tissue-based, Homo sapiens. In general terms: In qPCR the cycle at which signal appears reflects the starting amount.

Six compounds from ChEMBL document CHEMBL4706759, “Novel Substituted Pyrazines as Splicing Modulators for Modulating Splicing of mRNA and Uses Thereof for Treating Diseases” (ACS Med Chem Lett, 2021) can be followed below.

One may read the EC50 as the concentration that produces a half-maximal response.

Molecules are shown by their SMILES.

Take `CN(c1cnc(-c2ccc(-c3cn[nH]c3)cc2O)cn1)[C@H]1C[C@@H]2CC[C@@H](N2)[C@H]1F`: the EC50 in test [1] was found to be 0.01 nM; in test [2], 16 nM.

Take `CN(c1cnc(-c2ccc(-c3ccn(C)c(=O)c3)cc2O)cn1)[C@@H]1C[C@H]2CCC[C@H](N2)[C@@H]1F`: the concentration giving a half-maximal response (EC50) in test [1] was 0.01 nM; in test [2], 51 nM.

As to `CN(c1cnc(-c2ccc(-c3cn[nH]c3)cc2O)cn1)[C@H]1C[C@@H]2CC[C@@](C)(N2)[C@H]1F`, the figures for the EC50 in test [1] and in test [2] were 0.01 nM and 16 nM, respectively.

Regarding `CN(c1cnc(-c2ccc(-c3cn[nH]c3)cc2O)cn1)[C@H]1C[C@]2(C)CCC[C@@](C)(N2)[C@H]1F`, the EC50 was 0.01 nM in test [1] and 16 nM in test [2].

On to `CN(c1cnc(-c2cc(F)c(-c3cn[nH]c3)cc2O)cn1)[C@H]1C[C@@H]2CC[C@@H](N2)[C@H]1F`, for which the EC50 amounted to 0.01 nM in test [1] and 16 nM in test [2].

`CN(c1cnc(-c2ccc(-c3cn[nH]c3)cc2O)cn1)[C@H]1C[C@@H]2CCC[C@@H](N2)[C@H]1F`: the concentration giving a half-maximal response (EC50) in test [1] was 0.01 nM; in test [2], 16 nM.
